Results reported in US5731432A, “Inhibitors of adenosine monophosphate deaminase” (priority 1994, dated 1998).
Where two headings read alike, the source gives them in different places.

Columns and labels:
[1] = target: AMPDA activity from porcine heart; experiment: AMP Deaminase Assay (Example A); assay type: biochemical; conditions: for Ki: porcine heart AMPDA, 37° C., pH 6.5, competitive inhibition assumed; for Selectivity Ratio: selectivity ratio=[ADA Ki/Km]/[AMPDA Ki/Km], K = 1,000
Protocol: Catalysis was initiated by the addition of enzyme to the otherwise complete reaction mixture, and terminated after 5 minutes by injection into an HPLC system. Activities were determined from the amount of IMP formed during 5 minutes.

[2] = target: T1, adenosine deaminase (ADA) from calf intestinal mucosa (Bos taurus, UniProt P56658); experiment: Adenosine Deaminase Assay (Example B); assay type: biochemical
T1 construct: adenosine deaminase (ADA) from calf intestinal mucosa; from tissue; host or cells: calf intestinal mucosa
T1 sequence (P56658 1-363): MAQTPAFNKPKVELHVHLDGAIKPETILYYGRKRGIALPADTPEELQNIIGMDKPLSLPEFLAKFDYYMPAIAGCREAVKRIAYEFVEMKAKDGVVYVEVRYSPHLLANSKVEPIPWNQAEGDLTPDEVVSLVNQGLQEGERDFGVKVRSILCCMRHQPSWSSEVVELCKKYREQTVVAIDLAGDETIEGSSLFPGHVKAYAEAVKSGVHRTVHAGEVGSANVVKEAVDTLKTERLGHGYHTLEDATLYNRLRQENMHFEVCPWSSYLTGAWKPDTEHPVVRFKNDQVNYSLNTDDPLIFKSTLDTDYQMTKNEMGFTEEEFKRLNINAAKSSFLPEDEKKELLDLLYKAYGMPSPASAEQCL
Protocol: Inhibition of adenosine deaminase (ADA) from calf intestinal mucosa was determined spectrophotometrically at pH 7.0 using one of the following two assays:
(1) Direct Assay: The reaction system mixture contained inhibitor, ~0.001 units ADA, and 40 mM potassium phosphate in 1 ml and at 37° C. The concentration of the substrate adenosine was varied from 20 to 100 μM.
The reaction was initiated by addition of adenosine and monitored continuously at 340 nm for 7 minutes as the decrease in absorbance reflects oxidation of NADH.

[3] = test system: Neutrophil-myocyte adhesion; experiment: Inhibition of Neutrophil-Myocyte Adhesion (Example C); assay type: cell-based; conditions: read-out: Neutrophil-Myocyte Adhesion Inhibition IC50
Protocol: Isolated neutrophils and myocytes were stimulated with the cytokine, TNF-α, and incubated in the presence of the test compound. Neutrophil-myocyte adhesion was determined as described by […], et al., J. Clin. Invest.

isolated rat hearts = experiment: Functional recovery in isolated rat heart model of ischemia-reperfusion injury (Example D); conditions: low flow ischemia then 30 minutes reperfusion
Protocol: The ability of AMP deaminase inhibitors of the present invention to improve the recovery of post-ischemic function was examined in an isolated rat heart model of ischemia-reperfusion injury.
Isolated rat hearts were cannulated via the ascending aorta and attached to a perfusion apparatus according to the method of Langendorff. The hearts were perfused at a constant pressure of 100 cm of H2 O with a modified Krebs-Hanseleit buffer (pH 7.4) at 37° C. Left ventricular developed pressures (LVDP) were monitored continuously using a latex balloon attached to a pressure transducer. Coronary flows were measured gravimetrically by timed collection of pulmonary effluent. Following equilibration of the hearts for a period of 30 minutes, the hearts were subjected to […] of low flow ischemia, by reducing the perfusion pressure to 10 cm of H2 O, and then reperfused for 30 minutes by restoring the pressure to its original level (100 cm of H2 O). […] Compound 1 m provided recovery of LVDP to 83±2% compared to the placebo value of 65±2% when added to the perfusion to give a concentration of 0.3 μM.

ADA = target: T2, ADA (Homo sapiens, UniProt P00813); conditions: reported; kind of constant not stated; cited from earlier work
T2 sequence (P00813 1-363): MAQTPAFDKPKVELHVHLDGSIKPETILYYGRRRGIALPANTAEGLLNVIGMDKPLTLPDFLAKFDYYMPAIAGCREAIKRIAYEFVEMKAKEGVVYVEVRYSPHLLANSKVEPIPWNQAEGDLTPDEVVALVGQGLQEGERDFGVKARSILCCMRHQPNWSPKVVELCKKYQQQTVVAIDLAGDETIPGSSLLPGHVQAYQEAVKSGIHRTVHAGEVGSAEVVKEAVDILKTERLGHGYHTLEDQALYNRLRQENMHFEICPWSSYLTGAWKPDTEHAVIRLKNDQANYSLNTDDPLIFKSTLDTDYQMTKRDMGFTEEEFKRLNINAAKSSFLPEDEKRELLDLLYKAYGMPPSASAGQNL

AMPDA = conditions: reported; kind of constant not stated; cited from earlier work
Rat Focal Stroke Model = experiment: Rat model of ischemic brain injury / focal stroke (Example F); assay type: in vivo
Description: Each rat is anesthetized with halothane and placed on a heating pad hooked up to a temperature regulator and connected to rectal probe. EEG electrodes are then inserted into the temporalis muscle bilaterally in between the eye and the ear. A midline incision is made to expose the left Common Carotid Artery (CCA). The internal Carotid Artery (ICA)is isolated and carefully separated from the adjacent vagus nerve. Following ligation of various vessels the ICA should be the only remaining extracranial branch of the CCA. Two 5-0 silk sutures are tied loosely around the external carotid artery (ECA)and microvascular clips placed on both the CCA (proximal to the bifurcation)and the ICA (in between the first and the second bifurcation). The ECA above the bifurcation is coagulated and the two sutures are then cut below the coagulation. A 25 mm length 4-0 nylon suture, its tip rounded by heating near a fine tipped cauterizer, is introduced into the ECA lumen. 20-22 mm of the suture is inserted into the ECA stump. The suture around the ECA is tightened to hold the occluding suture in place and EEC reading is checked to confirm occlusion by the appearance of a flat line. At this point the intraluminal suture has blocked the origin of the […] (MCA), occluding all sources of blood flow from the interior Carotid Artery (ICA), the […] (ACA), and the posterior cerebral artery (PCA). At 105 min later the suture is gently retracted under halothane anesthesia to allow blood flow back into the middle cerebral artery. The neck incision is closed and animals allowed to recover from anesthesia. At 24 hrs animals are evaluated for behavioral deficits, sacrificed, transcardial perfused, brains removed and TTC stained for visualization of infarcted region using a computer assisted system.
The application of compound 1d is shown in the time line diagram. Thirty minutes prior to induction of ischemia (SUTURE IN) Compound 1d in isotonic saline solution was infused for 15 min at a loading dose of 250 μg/kg/min (50 μl/min)followed by maintenance rate of 50 μg/kg/min for the remaining 12 hrs.

[4] = calf intestinal mucosa ADA, pH 7.0, read-out: ADA Ki
[5] = neutrophils and myocytes stimulated with TNF-α
[6] = Treated, Post reperfusion, mean ± sem

| SMILES | Ki [1] [µM] | Selectivity Ratio [1] | Ki [2, 4] [µM] | IC50 [3, 5] [µM] | further results |
| --- | --- | --- | --- | --- | --- |
| CCCCCCCn1cnc2c1N=CNCC2(C)O (stereo not shown) [compound 1b, 3-heptyl-8-methylcoformycin aglycone] | 36 | 6 | 12 | – | – |
| CC(CCCCn1cnc2c1N=CNCC2O)(C(=O)O)C(=O)NCc1ccccc1 (stereo not shown) [compound 1l, 3-(5'-carbox-N-benzylamido-5'-carboxyhexyl)coformycin aglycone] | 2.7 | > 6.3K | > 1000 | – | – |
| O=C(O)C(CCCCn1cnc2c1NC=NCC2O)Cc1ccccc1 (stereo not shown) [compound 1j, 3-(5'-carboxy-6'-phenylhexyl)coformycin aglycone] | – | – | > 200 | 0.045 ± 0.01 | – |
| CCCCCCCn1cnc2c1N=CNCC2O (stereo not shown) [compound 1a, 3-heptylcoformycin aglycone] | 10 | – | 0.35 | – | recovery of LVDP (isolated rat hearts; 3 μM in perfusion, placebo 69±1%): 83±3%; IC50 [3]: 12 ± 6 µM |
| O=C(O)c1cc(CCn2cnc3c2N=CNCC3O)cs1 (stereo not shown) [compound 1o, 3-(2'-(2"-carboxythiophen-4"-yl)ethyl)coformycin aglycone] | 2.2 | 590 | > 6 | 8 ± 2 | – |
| Cc1ccccc1CCCn1cnc2c1N=CNCC2O (stereo not shown) [compound 1f, 3-(3'-(2"-methylphenyl)propyl)coformycin aglycone] | 2.1 | 0.34 | 0.042 | 1.4 ± 0.45 | – |
| Cc1ccc(C(=O)O)cc1CCn1cnc2c1N=CNCC2O (stereo not shown) [compound 1m, 3-(2'-(3"-carboxy-6"-methylphenyl)ethyl)coformycin aglycone] | 0.097 | > 175K | > 1000 | – | recovery of LVDP (isolated rat hearts; 0.3 μM in perfusion, placebo 65±2%): 83±2%; IC50 [3]: 0.03 ± 0.01 µM |
| CC1=Nc2c(ncn2CCCc2ccccc2C)C(O)CN1 (stereo not shown) [compound 1g, 5-methyl-3-(3'-(2"-methylphenyl)propyl)coformycin aglycone] | 11 | > 150 | > 100 | – | – |
| [N-]=[N+]=NC1CNC=Nc2c1ncn2CCCc1ccccc1 (stereo not shown) [compound 1h] | 6.6 | 0.16 | 0.063 | – | – |
| CC1(C)[C@H]2CC[C@H](Cn3cnc4c3N=CNCC4O)[C@@H]1C2 (stereo partly drawn) [compound 1e, (l'S,2'S,5'S)-3-(6',6'-dimethyl[3,1,1]-bicyclohept-2'-methyl)coformycin aglycone] | 1.7 | > 1.6K | > 160 | 24 ± 3 | – |
| O=C(O)C(CCCCn1cnc2c1N=CNCC2O)C(=O)OCc1ccccc1 (stereo not shown) [compound 1k, 3-(5'-carboxy-5'-carbobenzyloxypentyl)coformycin aglycone] | 0.36 | > 47K | > 1000 | – | – |
| O=C(O)c1cc(CCn2cnc3c2N=CNCC3O)c2ccccc2c1 (stereo not shown) [compound 1p, 3-(2'-(3"-carboxynaphthyl)ethyl)coformycin aglycone] | 0.02 | > 850K | > 1000 | – | – |
| CC(C)=CCC[C@H](C)CCn1cnc2c1N=CNCC2O (stereo partly drawn) [compound 1c, (3'S)-3-(3',7'-dimethyloct-6'-enyl)coformycin aglycone] | 1.1 | 29 | 1.9 | 5.1 ± 2.5 | – |
| OC[C@H]1O[C@@H](n2cnc3c2N=CNC[C@H]3O)[C@H](O)[C@@H]1O [Coformycin, coformycin] | – | – | – | – | inhibition of ADA (ADA): < 0.2 nM; inhibition of AMPDA (AMPDA): 1000 nM |
| OC1CNC=Nc2c1ncn2C1CCCCCC1 (stereo not shown) [compound 1d, 3-cycloheptylcoformycin aglycone] | 8 | 17 | 7.9 | 4.3 ± 1.3 | Blood Pressure (Rat Focal Stroke Model; [6]): 115 ± 4 mm Hg; Temperature (Rat Focal Stroke Model; [6]): 38.6 ± 0.2 °C; Blood Pressure (Rat Focal Stroke Model; Treated, Pre, mean ± sem): 102 ± 5 mm Hg; Temperature (Rat Focal Stroke Model; Treated, T = 0, mean ± sem): 37.4 ± 0.2 °C; Blood Pressure (Rat Focal Stroke Model; Treated, T = 60, mean ± sem): 84 ± 9 mm Hg; Temperature (Rat Focal Stroke Model; Treated, T = 60, mean ± sem): 37.5 ± 0.2 °C; pCO2 (Rat Focal Stroke Model; Treated, mean ± sem): 37.8 ± 1.3; pH (Rat Focal Stroke Model; Treated, mean ± sem): 7.379 ± 0.015; pO2 (Rat Focal Stroke Model; Treated, mean ± sem): 142.3 ± 10.0; effect on physiological parameters such as blood pressure, heart rate, body temperature and blood gases (Rat Focal Stroke Model; continuous infusion): no apparent effect; reduction of infarct volume (Rat Focal Stroke Model; infusion 250 μg/kg/min for 15 min then 50 μg/kg/min, vs control): 52%; infarct volume (Rat Focal Stroke Model; treated, n=8, control 139±31 (n=7), p=0.05): 71±28 mm^3 |
| CCCOc1ccc(CCCn2cnc3c2N=CNCC3O)cc1 (stereo not shown) [compound 1i, 3-(3'-(4"-propoxyphenyl)propyl)coformycin aglycone] | 3.6 | 0.03 | 0.006 | – | – |
| OC[C@H]1O[C@@H](n2cnc3c2NC=NC[C@H]3O)C[C@@H]1O [deoxycoformycin] | – | – | – | – | inhibition of AMPDA (AMPDA): 1000 nM |
| Cc1ccc(-c2nn[nH]n2)cc1CCn1cnc2c1N=CNCC2O (stereo not shown) [compound 1n, 3-(2'-(6"-methyl-3"-(tetrazol-5'"-yl)phenyl)ethyl)coformycin aglycone] | 1.6 | > 2.1K | – | – | Ki [2]: > 200 µM |
